Data as given in ChEMBL document CHEMBL2440076, “New triarylpyrazoles as broad-spectrum anticancer agents: design, synthesis, and biological evaluation” (Eur J Med Chem, 2013).

Experiments:
Type in all cases: functional
SW-620 = assay: Growth inhibition of human SW620 cells assessed as cell growth at 5X10'-5 M after 48 hrs by sulforhodamine B assay; conditions: SW-620, 48 h, read-out: Activity
SF-268 = assay: Growth inhibition of human SF268 cells assessed as cell growth at 5X10'-8 M after 48 hrs by sulforhodamine B assay; conditions: SF-268, 48 h, read-out: Activity
[1] = Growth inhibition of human NCI-ADR-RES cells assessed as cell growth at 5X10'-9 M after 48 hrs by sulforhodamine B assay; conditions: read-out: Activity
COLO 205 [2] = assay: Growth inhibition of human COLO205 cells assessed as cell growth at 5X10'-9 M after 48 hrs by sulforhodamine B assay; conditions: COLO 205, 48 h, read-out: Activity
COLO 205 [3] = assay: Growth inhibition of human COLO205 cells assessed as cell growth at 5X10'-6 M after 48 hrs by sulforhodamine B assay; conditions: COLO 205, 48 h, read-out: Activity
RPMI-8226 [4] = assay: Growth inhibition of human RPMI8226 cells assessed as cell growth at 5X10'-5 M after 48 hrs by sulforhodamine B assay; conditions: RPMI-8226, 48 h, read-out: Activity
SN12C = assay: Growth inhibition of human SN12C cells assessed as cell growth at 5X10'-8 M after 48 hrs by sulforhodamine B assay; conditions: read-out: Activity
786-0 [5] = assay: Growth inhibition of human 786-0 cells assessed as cell growth at 5X10'-6 M after 48 hrs by sulforhodamine B assay; conditions: 786-0, 48 h, read-out: Activity
T47D [6] = assay: Growth inhibition of human T47D cells assessed as cell growth at 5X10'-9 M after 48 hrs by sulforhodamine B assay; conditions: read-out: Activity
786-0 [7] = assay: Growth inhibition of human 786-0 cells assessed as cell growth at 5X10'-9 M after 48 hrs by sulforhodamine B assay; conditions: 786-0, 48 h, read-out: Activity
MOLT-4 = assay: Growth inhibition of human MOLT4 cells assessed as cell growth at 5X10'-8 M after 48 hrs by sulforhodamine B assay; conditions: MOLT-4, 48 h, read-out: Activity
MDA-MB-231 [8] = assay: Growth inhibition of human MDA-MB-231 cells assessed as cell growth at 5X10'-9 M after 48 hrs by sulforhodamine B assay; conditions: MDA-MB-231, 48 h, read-out: Activity
CCRF-CEM [9] = assay: Growth inhibition of human CCRF-CEM cells assessed as cell growth at 5X10'-8 M after 48 hrs by sulforhodamine B assay; conditions: read-out: Activity
OVCAR-3 = assay: Growth inhibition of human OVCAR3 cells assessed as cell growth at 5X10'-7 M after 48 hrs by sulforhodamine B assay; conditions: OVCAR-3, 48 h, read-out: Activity
HT-29 = assay: Growth inhibition of human HT-29 cells assessed as cell growth at 5X10'-9 M after 48 hrs by sulforhodamine B assay; conditions: HT-29, 48 h, read-out: Activity
SNB-19 = assay: Growth inhibition of human SNB19 cells assessed as cell growth at 5X10'-6 M after 48 hrs by sulforhodamine B assay; conditions: SNB-19, 48 h, read-out: Activity
UACC-62 = assay: Growth inhibition of human UACC62 cells assessed as cell growth at 5X10'-6 M after 48 hrs by sulforhodamine B assay; conditions: UACC-62, 48 h, read-out: Activity
IGROV-1 = assay: Growth inhibition of human IGROV1 cells assessed as cell growth at 5X10'-7 M after 48 hrs by sulforhodamine B assay; conditions: IGROV-1, 48 h, read-out: Activity
RPMI-8226 [10] = assay: Growth inhibition of human RPMI8226 cells assessed as cell growth at 5X10'-6 M after 48 hrs by sulforhodamine B assay; conditions: RPMI-8226, 48 h, read-out: Activity
CCRF-CEM [11] = assay: Growth inhibition of human CCRF-CEM cells assessed as cell growth at 5X10'-5 M after 48 hrs by sulforhodamine B assay; conditions: read-out: Activity
NCI-H226 [12] = assay: Growth inhibition of human NCI-H226 cells assessed as cell growth at 5X10'-7 M after 48 hrs by sulforhodamine B assay; conditions: NCI-H226, 48 h, read-out: Activity
A549 = assay: Growth inhibition of human A549/ATCC cells assessed as cell growth at 5X10'-9 M after 48 hrs by sulforhodamine B assay; conditions: A549, 48 h, read-out: Activity
KM12 = assay: Growth inhibition of human KM12 cells assessed as cell growth at 5X10'-6 M after 48 hrs by sulforhodamine B assay; conditions: KM12, 48 h, read-out: Activity
[13] = Growth inhibition of human Hs 578T cells assessed as cell growth at 5X10'-8 M after 48 hrs by sulforhodamine B assay; conditions: read-out: Activity
HCT-116 = assay: Growth inhibition of human HCT116 cells assessed as cell growth at 5X10'-6 M after 48 hrs by sulforhodamine B assay; conditions: HCT-116, 48 h, read-out: Activity
T47D [14] = assay: Growth inhibition of human T47D cells assessed as cell growth at 5X10'-6 M after 48 hrs by sulforhodamine B assay; conditions: read-out: Activity
Malme-3M = assay: Growth inhibition of human MALME-3M cells assessed as cell growth at 5X10'-9 M after 48 hrs by sulforhodamine B assay; conditions: read-out: Activity
MDA-MB-435 = assay: Growth inhibition of human MDA-MB-435 cells assessed as cell growth at 5X10'-9 M after 48 hrs by sulforhodamine B assay; conditions: MDA-MB-435, 48 h, read-out: Activity
MCF7 = assay: Growth inhibition of human MCF7 cells assessed as cell growth at 5X10'-7 M after 48 hrs by sulforhodamine B assay; conditions: MCF7, 48 h, read-out: Activity
HOP-62 = assay: Growth inhibition of human HOP62 cells assessed as cell growth at 5X10'-5 M after 48 hrs by sulforhodamine B assay; conditions: HOP-62, 48 h, read-out: Activity
NCI-H226 [15] = assay: Growth inhibition of human NCI-H226 cells assessed as cell growth at 5X10'-5 M after 48 hrs by sulforhodamine B assay; conditions: NCI-H226, 48 h, read-out: Activity
NCI-H23 = assay: Growth inhibition of human NCI-H23 cells assessed as cell growth at 5X10'-7 M after 48 hrs by sulforhodamine B assay; conditions: NCI-H23, 48 h, read-out: Activity
LOX IMVI = assay: Growth inhibition of human LOXIMVI cells assessed as cell growth at 5X10'-5 M after 48 hrs by sulforhodamine B assay; conditions: read-out: Activity
MDA-MB-231 [16] = assay: Growth inhibition of human MDA-MB-231 cells assessed as cell growth at 5X10'-5 M after 48 hrs by sulforhodamine B assay; conditions: MDA-MB-231, 48 h, read-out: Activity
NCI-H322M = assay: Growth inhibition of human NCI-H322M cells assessed as cell growth at 5X10'-9 M after 48 hrs by sulforhodamine B assay; conditions: read-out: Activity
SK-OV-3 = assay: Growth inhibition of human SKOV3 cells assessed as cell growth at 5X10'-8 M after 48 hrs by sulforhodamine B assay; conditions: SK-OV-3, 48 h, read-out: Activity
TK-10 = assay: Growth inhibition of human TK10 cells assessed as cell growth at 5X10'-7 M after 48 hrs by sulforhodamine B assay; conditions: TK-10, 48 h, read-out: Activity

Row | SMILES | growth at 50 µM (SW-620) | growth at 0.05 µM (SF-268) | growth at 0.005 µM [1] | growth at 0.005 µM (COLO 205 [2]) | growth at 5 µM (COLO 205 [3]) | growth at 50 µM (RPMI-8226 [4]) | growth at 0.05 µM (SN12C) | growth at 5 µM (786-0 [5]) | growth at 0.005 µM (T47D [6]) | growth at 0.005 µM (786-0 [7]) | growth at 0.05 µM (MOLT-4) | growth at 0.005 µM (MDA-MB-231 [8]) | growth at 0.05 µM (CCRF-CEM [9]) | growth at 0.5 µM (OVCAR-3) | growth at 0.005 µM (HT-29) | growth at 5 µM (SNB-19) | growth at 5 µM (UACC-62) | growth at 0.5 µM (IGROV-1) | growth at 5 µM (RPMI-8226 [10]) | growth at 50 µM (CCRF-CEM [11]) | other results
1 | O=C(Nc1cccc(-n2cc(-c3ccncc3)c(-c3ccc(Cl)c(O)c3)n2)c1)c1ccc(N2CCOCC2)c(C(F)(F)F)c1 | -31% | 93% | 97% | 98% | 87% | -14% | 98% | 35% | 97% | 94% | 94% | 96% | 100% | 106% | 101% | 45% | 39% | 112% | 9% | 14% | growth at 0.5 µM (NCI-H226 [12]): 99%; growth at 0.005 µM (A549): 102%; growth at 5 µM (KM12): 25%; growth at 0.05 µM [13]: 87%; growth at 5 µM (HCT-116): 35%; growth at 5 µM (T47D [14]): 84%; growth at 0.005 µM (Malme-3M): 88%; growth at 0.005 µM (MDA-MB-435): 93%; growth at 0.5 µM (MCF7): 78%; growth at 50 µM (HOP-62): 6%; growth at 50 µM (NCI-H226 [15]): 58%; growth at 0.5 µM (NCI-H23): 96%; growth at 50 µM (LOX IMVI): -53%; growth at 50 µM (MDA-MB-231 [16]): -8%; growth at 0.005 µM (NCI-H322M): 100%; growth at 0.05 µM (SK-OV-3): 98%; growth at 0.5 µM (TK-10): 97%
2 | O=C(Nc1cccc(-n2cc(-c3ccncc3)c(-c3ccc(Cl)c(O)c3)n2)c1)Nc1cc(C(F)(F)F)cc(C(F)(F)F)c1 | -75% | 103% | 102% | 105% | -94% | 5% | 96% | -23% | 97% | 100% | 109% | 94% | 92% | 43% | 110% | 16% | -38% | 71% | 4% | -18% | growth at 0.5 µM (NCI-H226 [12]): 79%; growth at 0.005 µM (A549): 96%; growth at 5 µM (KM12): -60%; growth at 0.05 µM [13]: 94%; growth at 5 µM (HCT-116): -87%; growth at 5 µM (T47D [14]): 20%; growth at 0.005 µM (Malme-3M): 107%; growth at 0.005 µM (MDA-MB-435): 98%; growth at 0.5 µM (MCF7): 52%; growth at 50 µM (HOP-62): -90%; growth at 50 µM (NCI-H226 [15]): -58%; growth at 0.5 µM (NCI-H23): 80%; growth at 50 µM (LOX IMVI): -95%; growth at 50 µM (MDA-MB-231 [16]): -72%; growth at 0.005 µM (NCI-H322M): 108%; growth at 0.05 µM (SK-OV-3): 102%; growth at 0.5 µM (TK-10): 75%
3 | COc1cc(-c2nn(-c3cccc(NC(=O)c4cccc(C(F)(F)F)c4)c3)cc2-c2ccncc2)ccc1Cl | 19% | 93% | 96% | 108% | 1% | -4% | 99% | 27% | 92% | 95% | 98% | 102% | 98% | 98% | 96% | 28% | 27% | 86% | 12% | 4% | growth at 0.5 µM (NCI-H226 [12]): 84%; growth at 0.005 µM (A549): 102%; growth at 5 µM (KM12): 14%; growth at 0.05 µM [13]: 91%; growth at 5 µM (HCT-116): 12%; growth at 5 µM (T47D [14]): 36%; growth at 0.005 µM (Malme-3M): 95%; growth at 0.005 µM (MDA-MB-435): 96%; growth at 0.5 µM (MCF7): 81%; growth at 50 µM (HOP-62): 51%; growth at 50 µM (NCI-H226 [15]): -7%; growth at 0.5 µM (NCI-H23): 86%; growth at 50 µM (LOX IMVI): 5%; growth at 50 µM (MDA-MB-231 [16]): -21%; growth at 0.005 µM (NCI-H322M): 91%; growth at 0.05 µM (SK-OV-3): 103%; growth at 0.5 µM (TK-10): 108%
